Experimental data published in ChEMBL document CHEMBL1125196, “Design and synthesis of P2-P1'-linked macrocyclic human renin inhibitors” (J Med Chem, 1991).

Molecular target: T1, Renin (Homo sapiens, UniProt P00797)
T1 sequence (P00797 whole entry): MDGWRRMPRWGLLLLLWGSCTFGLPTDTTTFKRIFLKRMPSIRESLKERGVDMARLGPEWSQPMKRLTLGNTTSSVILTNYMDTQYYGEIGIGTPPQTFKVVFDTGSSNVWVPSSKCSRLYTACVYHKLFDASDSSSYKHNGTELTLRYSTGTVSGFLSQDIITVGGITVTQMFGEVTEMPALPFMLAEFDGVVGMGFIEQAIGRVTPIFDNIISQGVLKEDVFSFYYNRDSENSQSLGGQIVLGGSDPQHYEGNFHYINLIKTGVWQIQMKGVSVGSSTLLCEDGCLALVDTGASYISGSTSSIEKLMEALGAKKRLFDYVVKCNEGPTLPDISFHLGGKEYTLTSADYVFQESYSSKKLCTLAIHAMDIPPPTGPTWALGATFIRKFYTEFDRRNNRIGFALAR
Experiment: The compound was evaluated in vitro for inhibition of human plasma renin at pH 7.4.
Format: cell-free

| Compound | IC50 |
| --- | --- |
| CC(C)(C)OC(=O)N[C@@H](Cc1ccccc1)C(=O)N[C@H]1CCC(=O)NCCC[C@@H](O)[C@H](O)[C@H](CC2CCCCC2)NC1=O | > 20 µM |
| CC(C)(C)OC(=O)N[C@@H](Cc1ccccc1)C(=O)N[C@H]1CCC(=O)NCCCC2(OCCO2)[C@H](O)[C@H](CC2CCCCC2)NC1=O | > 20 µM |
| CC(C)(C)OC(=O)N[C@@H](Cc1ccccc1)C(=O)N[C@H]1CCC(=O)NCCC[C@H](O)[C@H](O)[C@H](CC2CCCCC2)NC1=O | 0.65 µM |
| CC(C)(C)OC(=O)N[C@@H](Cc1ccccc1)C(=O)N[C@H]1CCC(=O)NCCCC(=O)[C@H](O)[C@H](CC2CCCCC2)NC1=O | 14 µM |
| CC(C)(C)OC(=O)N[C@@H](Cc1ccccc1)C(=O)N[C@H]1CNC(=O)CCCCOC(=O)[C@H](O)[C@H](CC2CCCCC2)NC1=O | 0.59 µM |

Further lines, results first:

| IC50 | Compound |
| --- | --- |
| 9.2 µM | CC(C)(C)OC(=O)N[C@@H](Cc1ccccc1)C(=O)N[C@H]1CNC(=O)CCCOC(=O)[C@H](O)[C@H](CC2CCCCC2)NC1=O |
| 7 µM | CC(C)(C)OC(=O)N[C@@H](Cc1ccccc1)C(=O)N[C@H]1CCC(=O)NCCCOC(=O)[C@H](O)[C@H](CC2CCCCC2)NC1=O |
| 0.61 µM | CC(C)(C)OC(=O)N[C@@H](Cc1ccccc1)C(=O)N[C@H]1CCC(=O)NCCOC(=O)[C@H](O)[C@H](CC2CCCCC2)NC1=O |
